Source: paper PMC10648852, “Molecular drivers of resistance to sulbactam-durlobactam in contemporary clinical isolates of Acinetobacter baumannii” (Antimicrobial Agents and Chemotherapy, 2023)
Read-outs that look alike come from different tables or passages of the source.

Assays:
[1] = test system: A. baumannii KAB1544 and efflux overexpression mutants; assay: Broth microdilution MIC, isogenic A. baumannii overexpression efflux mutants; type: cell-based; settings: for MIC: Acinetobacter baumannii; for change in MIC values relative to the parent strain: most of the AdeR and AdeS mutants (AdeABC overexpression), KAB1544
Experimental: To further assess the role of efflux in SUL-DUR activity against Acinetobacter spp., two panels of A. baumannii isogenic strains were tested. The first consisted of 7 members of an A. baumannii transposon library ([28]) with single gene disruptions in the adeABC, adeIJK, or adeT loci as compared to the parent strain, AB5075. […] This panel of strains consists of four different point mutants in AdeR and five different point mutants in AdeS, which result in the upregulation of AdeABC expression. In addition, this panel contains chromosomal deletions of adeL and adeN, which result in overexpression of AdeFGH and AdeIJK, respectively ([29]).
In contrast, sulbactam, SUL-DUR, and imipenem MIC values were unaffected by these mutants (Table 4).
The AB5075 parent strain as well as transposon interrupted AdeABC, AdeIJK, and AdeT were purchased from the Manoil laboratory at the University of Washington from their arrayed transposon mutant collection ([28]). The KAB1544 parent as well as efflux pump regulator mutants and deletions were constructed as previously described ([29]).
Antimicrobial susceptibility testing was performed using broth microdilution following standardized methods established by the Clinical Laboratory Standards Institute (CLSI) ([35], [36]). Quality control testing was performed as specified by CLSI using A. baumannii NCTC 13304 ([35]). MIC values were interpreted using CLSI breakpoints for all antimicrobial agents except those for which CLSI breakpoints are not available ([35]). SUL-DUR was tested as twofold dilutions of sulbactam in combination with a fixed concentration of 4 µg/mL durlobactam ([35]).

[2] = test system: 5,032 ABC clinical isolates; settings: 5,032 ABC clinical isolates 2016-2021; durlobactam fixed at 4 µg/mL in SUL-DUR; cited from earlier work
[3] = AdeR A91V, AdeABC overexpressed, read-out: MIC
[4] = AdeR D20N, AdeABC overexpressed, read-out: MIC
[5] = AdeR E219A, AdeABC overexpressed, read-out: MIC
[6] = AdeR P116L, AdeABC overexpressed, read-out: MIC
[7] = AdeS A94V, AdeABC overexpressed, read-out: MIC
[8] = AdeS G30D, AdeABC overexpressed, read-out: MIC
[9] = AdeS G103D, AdeABC overexpressed, read-out: MIC
[10] = AdeS R152K, AdeABC overexpressed, read-out: MIC
[11] = AdeS T153M, AdeABC overexpressed, read-out: MIC
[12] = Parent (KAB1544), no efflux pump overexpressed, read-out: MIC

| SMILES | MIC [1, 3] | MIC [1, 4] | MIC [1, 5] | MIC [1, 6] | MIC [1, 7] | MIC [1, 8] | MIC [1, 9] | MIC [1, 10] | MIC [1, 11] | MIC [1, 12] | MIC ([1]; ΔadeL, AdeFGH overexpressed) | MIC ([1]; ΔadeN, AdeIJK overexpressed) | change in MIC values relative to the parent strain [1] | MIC50 [2] | MIC90 [2] |
| --- | --- | --- | --- | --- | --- | --- | --- | --- | --- | --- | --- | --- | --- | --- | --- |
| CC1(C)[C@H](C(=O)O)N2C(=O)C[C@H]2S1(=O)=O [sulbactam] | 1 µg/mL | 1 µg/mL | 2 µg/mL | 1 µg/mL | 1 µg/mL | 1 µg/mL | 2 µg/mL | 1 µg/mL | 1 µg/mL | 2 µg/mL | 1 µg/mL | 2 µg/mL | unaffected | 8 µg/mL | 32 µg/mL |
| C[C@@H](O)[C@H]1C(=O)N2C(C(=O)O)=C(SCCN=CN)C[C@H]12 [imipenem] | 0.5 µg/mL | 0.5 µg/mL | 0.25 µg/mL | 0.5 µg/mL | 0.5 µg/mL | 0.5 µg/mL | 0.25 µg/mL | 0.5 µg/mL | 0.5 µg/mL | 0.25 µg/mL | 0.25 µg/mL | 0.25 µg/mL | unaffected |  |  |
